Assay results: patent US20040138241A1, “Novel use of arylethenesulfonamide derivative” (priority 2001, published 2004)
Structures can show the parent of a compound that is named as a salt. Where two headings read alike, the source gives them in different places.

Tests used:
[1] = tested on: urethral pressure in anesthetized dogs; test: ET-1 induced increase of urethral pressure in the presence of α1 receptor blocker in anesthetized dog; type: in vivo; conditions: tamsulosin hydrochloride 10 μg/kg i.v.
Description: A urethral pressure profile (UPP) was recorded according to the same operation method as in Test Example 3 .
Thirty minutes thereafter, the same amount of tamsulosin hydrochloride (10 μg/kg i.v.) was again intravenously administered.

[2] = tested on: urethral pressure in anesthetized dogs
Source text: Male beagle dogs (body weight: from 8 to 13 kg) were subjected to artificial ventilation under the anesthesia with pentobarbital, a catheter was inserted into a left femoral artery for measurement of blood pressure and heart rate and a left femoral vein for administration of drug. A catheter for measurement of urethral pressure (from 8 to 10Fr, 2 holes, manufactured by Create Medic Co., Ltd.) was inserted from an external urethral meatus toward urinary bladder. An automatic syringe pump was connected with one end of the catheter, and a pressure transducer was connected with the other end thereof. […] At the same time, by drawing out the catheter from the urinary bladder into the external urethral meatus at a rate of 25 mm/min by an automatic drawing unit, the pressure was measured and recorded throughout urethra as a urethral pressure profile (UPP) as shown in FIG. 6.
In the blood pressure-response by ET-1 since the pressure increased after a transient reduction of pressure, measurement of the urethral pressure was started about 3 minutes after the administration. On the other hand, as phenylephrine hydrochloride caused an increase of pressure immediately after the administration, measurement of the urethral pressure was started immediately after the administration.
Three minutes after the administration, ET-1 (1 μg/kg) was again intravenously administered, and an action against the urethral pressure was studied similarly to the time of single administration.

[3] = tested on: prostatic urethral pressure in anesthetized dogs; type: in vivo, dog; conditions: for EC50 value of increase of PUP, reduced into molar concentration: i.a. local administration, mean±standard error
Description: After waiting for stabilization of hemodynamics following the operation, the balloon was fixed to the prostatic urethra and expanded, and a prostatic urethral pressure (PUP) was measured from a change in pressure within the balloon.
ET-1 (from 0.006 to 0.8 μg/kg i.a., molar concentration: from 0.0025 to 0.321 nmol/kg i.a.) and phenylephrine hydrochloride (from 0.06 to 8 μg/kg i.a.; molar concentration: from 0.307 to 39.3 nmol/kg i.a.) were locally administered, thereby comparing the dose-response curve of an increasing action of PUP by the drugs.
In the experiments, dogs in which a degree of increase of PUP was observed 40 cmH2O or more in the pre-contraction with phenylephrine hydrochloride (8 μg/kg i.a.) were used.

[4] = tested on: isolated rabbit prostate, urethra and bladder base preparations; test: Concentration-response of agonists in isolated rabbit lower urinary tract preparations; type: biochemical; conditions: cumulative addition
Description: Male Japanese white rabbits (from 3 to 5 kg, available from Kitayama Labes Co., Ltd.) were provided for experiments. Prostate, urethra and bladder were isolated from the rabbit to prepare ring preparations of smooth muscle. With respect to the bladder, a dorsal region of the bladder base was used as preparation. Each of the preparations was suspended in an organ bath filled with a Krebs-Henselit solution at 37 ° C., into which was then aerated a 95% O2-5% CO2 gas. A resting tension was subjected as 1g, and a tension change was isometrically measured. Incidentally, the organ bath for preventing adsorption of ET-1 was previously subjected to silicon treatment. After elapse of an equilibrium period for 60 minutes, the preparation was contracted twice by 10 μM phenylephrine hydrochloride to be stabilized the responsibility, and a main experiment was started.
ET-1 (from 0.1 to 1,000 nM), phenylephrine hydrochloride (from 0.01 to 100 μM), S6c (from 1 to 1,000 nM), or acetylcholine (from 0.01 to 1,000 μM) was cumulatively added to the organ bath to obtain a concentration-response curve. […] The contraction response to each agonists was expressed while defining the contraction by phenylephrine hydrochloride (10 μM) as obtained immediately therebefore as 100%.

[5] = ET-1 1 μg/kg i.v., phenylephrine hydrochloride 30 μg/kg i.v.

Compound: CC[C@H](C)[C@H](NC(=O)[C@H](CC(=O)O)NC(=O)[C@H](CC(C)C)NC(=O)[C@H](Cc1cnc[nH]1)NC(=O)[C@@H]1CSSC[C@H](N)C(=O)N[C@@H](CO)C(=O)N[C@H]2CSSC[C@H](NC(=O)[C@H](CCC(=O)O)NC(=O)[C@H](CCCCN)NC(=O)[C@H](CC(=O)O)NC(=O)[C@H](CCSC)NC(=O)[C@H](CC(C)C)NC(=O)[C@H](CO)NC(=O)[C@H](CO)NC2=O)C(=O)N[C@@H](C(C)C)C(=O)N[C@@H](Cc2ccc(O)cc2)C(=O)N[C@@H](Cc2ccccc2)C(=O)N1)C(=O)N[C@H](C(=O)N[C@@H](Cc1c[nH]c2ccccc12)C(=O)O)[C@@H](C)CC [ET-1]
- action on urethral pressure in the presence of tamsulosin hydrochloride ([1]; ET-1 1 μg/kg i.v.): increased the urethral pressure of the whole of lower urinary tract including prostate
- action on urethral pressure (UPP) [2, 5]: remarkable increase of the pressure throughout urethra other than prostate in addition to an increase of the urethral pressure of prostate
- action on mean blood pressure ([2]; dog, in vivo, iv): without substantially affecting the mean blood pressure
- duration of increase response of PUP relative to phenylephrine hydrochloride ([3]; ET-1 0.4 μg/kg i.a. vs phenylephrine hydrochloride 2 μg/kg i.a., typical example): about 3 times
- concentration for increasing action of prostatic urethral pressure, times lower than phenylephrine hydrochloride ([3]; anesthetized dog, i.a.): about 100 times
- maximum response of PUP, of that of phenylephrine hydrochloride ([3]; anesthetized dog, i.a.): 43.9 ±5.2%
- EC50 value of increase of PUP, reduced into molar concentration ([3]; anesthetized dog): 0.08 ± 0.03 nmol/kg

Compound: CCOc1ccccc1OCCN[C@H](C)Cc1ccc(OC)c(S(N)(=O)=O)c1 [tamsulosin hydrochloride]
- action on prostatic urethral pressure ([1]; anesthetized dogs): reduced the prostatic urethral pressure

Compound: sarafotoxin S6c [Compound S6c]
- contraction of isolated preparations (in words) [4]: not substantially observed

Compound: CNC[C@H](O)c1cccc(O)c1 [phenylephrine hydrochloride]
- action on mean blood pressure [2, 5]: increase of mean blood pressure
- action on urethral pressure (UPP) [2, 5]: remarkable increase of the urethral pressure of prostate
- EC50 value of increase of PUP, reduced into molar concentration ([3]; anesthetized dog): 7.47 ± 2.82 nmol/kg
- degree of increase of PUP relative to ET-1 ([3]; phenylephrine hydrochloride 2 μg/kg i.a. vs ET-1 0.4 μg/kg i.a., typical example): higher about twice
